Data on two compounds can be found in US20250000948A1, “SOLID COMPOSITIONS COMPRISING A PEPTIDE OR A PROTEIN AND AN ACYLATED AMINO ACID” (ADOCIA, priority 2021, published 2025).

In one data set the test system is Caco-2 monolayers. In kind it is in vitro ADME. The protocol:
An in vitro permeability assay was conducted in order to evaluate the impact of NaPheC8 on the passage of peptides through a monolayer of intestinal epithelial cells. Caco-2 cells were seeded on a polycarbonate membrane that separate basal and apical compartments of a Transwell system and cultured for 21-days.
Insulin lispro and semaglutide formulations (100 μM) were added into the apical compartment of the culture system in presence or absence of different concentrations of NaPheC8.
In vitro absorption of peptides was estimated by quantifying insulin lispro or semaglutide in the basal compartment 1 hour after the addition of formulations (quantification by ELISA).
Peptide permeability in the presence of NaPheC8, expressed as a fold-increase compared to the treatment with the peptide alone, is reported in the table below: […]

A short description of data set [1]: Solubilization kinetics of compacts, USP <711> paddle apparatus (Example B1). The data set is classed as physicochemical. Conditions: 200 mM phosphate buffer pH 6.8, 37° C., 75 rpm. The protocol:
To evaluate solubilization kinetics of NaPheC6 and NaPheC8 in similar conditions, compacts are prepared in the following manner:
In a manual tablet press (LFA TDP 0 Desktop tablet press) equipped with cylindrical 8 mm diameter punches, 200 +10 mg of permeation enhancer is filled into the die cavity. Compression into cylindrical compacts of 4±0.5 mm height yields compacts with apparent volumetric mass of 1±0.2 g/mL.
These compacts are put into a capsule sinker, then dissolved using an USP <711>-compliant apparatus (type 2-Paddle apparatus). Dissolution is done into 700 mL of 200 mM phosphate buffer, pH 6.8. Temperature is set at 37° C. and agitation at 75 rpm.
Sampling of the dissolution medium followed by HPLC dosage yields the following dissolution profiles for the compounds NaPheC6 and NaPheC8, respectively: […]

Consider `CCCCCCCC(=O)N[C@@H](Cc1ccccc1)C(=O)[O-].[Na+]` [NaPheC8, sodium salt of N-octanoyl phenylalanine], for which, in the data set on Caco-2 monolayers, the “effect on passage of peptides through Caco-2 monolayers (in words)” value is “favors the passage of these peptides through Caco-2 monolayers, in a dose-dependant manner”. Moreover, the “dissolved (%)” value in data set [1] (20 seconds) stood at 15%; in data set [1] (40 seconds), 37%; in data set [1] (60 seconds) it was 57%; in data set [1] (80 seconds) it was 89%; in data set [1] (100 seconds), 99%.

On to `CCCCCC(=O)N[C@@H](Cc1ccccc1)C(=O)O` [NaPheC6, N-hexanoyl-Phenylalanine], for which the “dissolved (%)” value in data set [1] (20 seconds) is 47%; in data set [1] (40 seconds), 100%; in data set [1] (60 seconds), 100%; in data set [1] (80 seconds) it was 100%; in data set [1] (100 seconds), 100%.
